Measured values published in patent US20160287563A1, “Cysteine Prodrugs” (Promentis Pharmaceuticals, Inc., priority 2011, published 2016).

Tests used:
[1] = tested on: cultured cells; experiment: Glutathione levels in cultured cells exposed to oxidative stress agents; type: cell-based; conditions: iron 0-120 min exposure to 0-100 microM; ethacrynic acid 0-30 min exposure to 0-10 microM
Source text: First, the experiment described in part 1A is repeated, except the harvested tissue is exposed to agents that induce oxidative stress which would prompt the cells to use/increase the synthesis of glutathione (the details are provided below).

[2] = tested on: MAM-treated rats; experiment: Attentional Set Shifting in MAM-treated rats; type: in vivo
Source text: (§1) This approach would have the added benefit of allowing assessing the impact of the compounds on cognitive changes that are thought to be relevant to schizophrenia. Thus, one would be able to test the hypothesis that the conditions that normalize glutathione are also conditions that are expected to improve cognitive performance.
Seven days prior to testing the animals will be food deprived to 85% of their free-feeding weight. Rats will be trained and tested on a four-arm cross maze (60×20×12 inches), constructed from Plexiglas with a removable arm to form a “T” configuration. On the first habituation day, the rat will be allowed to explore and consume up to 20 sugar pellets for 15 minutes. On the second day, the maze will be baited with 12 pellets for 15 minutes. On subsequent days, only one pellet will be placed at the end of each arm. This procedure will be continued daily until the rat consumes 16 sugar pellets in 15 minutes. Once achieved, the turn bias will be determined by forming a “T” configuration with the removable arm. A black-and-white piece of laminated paper for a visual cue will be placed on the floor in one of the arms. One pellet will be placed in each food well of the “T” arms. The rat will then be placed in the stem arm and allowed to choose between the two arms. […]

[3] = Tissue glutathione in the MAM neurodevelopmental model of schizophrenia; type: in vivo; conditions: rats in the MAM neurodevelopmental model (MAM 22 mg/kg IP on gestational day 17)
Experimental: as §1
Timed pregnant Sprauge-Dawley rats are given an acute injection of methylazoxymethanol (MAM; 22 mg/kg, IP) or vehicle on gestational day 17. Following vaginal birth, all mothers and offspring are left undisturbed until weaning on postnatal day 22.

Row | Structure (SMILES) | tissue levels of glutathione in cultured cells [1] | also measured
1 | [Fe] [iron] | decrease tissue levels of glutathione | –
2 | CC(=O)N[C@@H](CS)C(=O)O [NAC, N-acetyl cysteine] | – | Attentional Set Shifting deficit [2]: can be restored
3 | C[N+]([O-])=NCO [MAM, methylazoxymethanol] | – | tissue levels of glutathione [3]: modest reduction in tissue levels of glutathione
4 | C=C(CC)C(=O)c1ccc(OCC(=O)O)c(Cl)c1Cl [ethacrynic acid] | decrease tissue levels of glutathione | –
